Results taken from patent US6949383B2 (priority 1998, dated 2005).

Experiments:
Type in all cases: cell-based, Escherichia coli
[1] = test system: dnaQ
[2] = test system: Wild-Type
[3] = test system: Super-Oflo.-resisting dnaQ; assay: Minimum growth inhibiting concentration (MIC) of antibiotic substances
[4] = test system: dnaQ49 strain; assay: Drug resistance reached by repeated mutagenesis and selection (Example 2)

Q: For `CC1COc2c(N3CCN(C)CC3)c(F)cc3c(=O)c(C(=O)O)cn1c23` (centres unmarked) [Ofloxacin], which “Minimum growth inhibiting concentration (MIC)” value [1] is on record?
A: 0.0156

Q: What about the “Minimum growth inhibiting concentration (MIC)” value [2] of the same compound?
A: 0.0625

Q: What about the “Minimum growth inhibiting concentration (MIC)” value [3] of the same compound?
A: 1024

Q: And the “Concentration of Ofloxacin” value ([4]; mutagenesis treatment for 1 time)?
A: 0.001 µg/mL

Q: What about the “Concentration of Ofloxacin” value ([4]; mutagenesis treatments for 2 times) of the same compound?
A: 0.01 µg/mL

Q: What about the “Concentration of Ofloxacin” value ([4]; mutagenesis treatments for 3 times) of the same compound?
A: 0.1 µg/mL

Q: What about the “Concentration of Ofloxacin” value ([4]; mutagenesis treatments for 4 times) of the same compound?
A: 1 µg/mL

Q: What about the “Concentration of Ofloxacin” value ([4]; mutagenesis treatments for 5 times) of the same compound?
A: 10 µg/mL

Q: And the “Concentration of Ofloxacin” value ([4]; mutagenesis treatments for 6 times)?
A: 30 µg/mL

Q: And the “Concentration of Ofloxacin” value ([4]; mutagenesis treatments for 7 times)?
A: 50 µg/mL

Q: What about the “Concentration of Ofloxacin” value ([4]; mutagenesis treatments for 8 times) of the same compound?
A: 60 µg/mL

Q: And the “Concentration of Ofloxacin” value ([4]; mutagenesis treatments for 9 times)?
A: 70 µg/mL

Q: What about the “Concentration of Ofloxacin” value ([4]; mutagenesis treatments for 10 times) of the same compound?
A: 80 µg/mL

Q: What about the “Concentration of Ofloxacin” value ([4]; mutagenesis treatments for 11 times) of the same compound?
A: 90 µg/mL

Q: What about the “Concentration of Ofloxacin” value ([4]; mutagenesis treatments for 12 times) of the same compound?
A: 100 µg/mL

Q: What about the “Concentration of Ofloxacin” value ([4]; mutagenesis treatments for 13 times) of the same compound?
A: 120 µg/mL

Q: What about the “Concentration of Ofloxacin” value ([4]; mutagenesis treatments for 14 times) of the same compound?
A: 132 µg/mL

Q: What about the “Concentration of Ofloxacin” value ([4]; mutagenesis treatments for 15 times) of the same compound?
A: 144 µg/mL

Q: What about the “Concentration of Ofloxacin” value ([4]; mutagenesis treatments for 16 times) of the same compound?
A: 150 µg/mL

Q: What about the “Concentration of Ofloxacin” value ([4]; mutagenesis treatments for 17 times) of the same compound?
A: 156 µg/mL

Q: What about the “Concentration of Ofloxacin” value ([4]; mutagenesis treatments for 18 times) of the same compound?
A: 168 µg/mL

Q: What about the “Concentration of Ofloxacin” value ([4]; mutagenesis treatments for 19 times) of the same compound?
A: 180 µg/mL

Q: What about the “Concentration of Ofloxacin” value ([4]; mutagenesis treatments for 20 times) of the same compound?
A: 210 µg/mL

Q: What about the “Concentration of Ofloxacin” value ([4]; mutagenesis treatments for 21 times) of the same compound?
A: 240 µg/mL

Q: And the “Concentration of Ofloxacin” value ([4]; mutagenesis treatments for 22 times)?
A: 270 µg/mL

Q: And the “Concentration of Ofloxacin” value ([4]; mutagenesis treatments for 23 times)?
A: 300 µg/mL

Q: What about the “Concentration of Ofloxacin” value ([4]; mutagenesis treatments for 24 times) of the same compound?
A: 320 µg/mL

Q: What about the “Concentration of Ofloxacin” value ([4]; mutagenesis treatments for 25 times) of the same compound?
A: 330 µg/mL

Q: And the “Concentration of Ofloxacin” value ([4]; mutagenesis treatments for 26 times)?
A: 340 µg/mL

Q: What about the “Concentration of Ofloxacin” value ([4]; mutagenesis treatments for 27 times) of the same compound?
A: 350 µg/mL

Q: What about the “Concentration of Ofloxacin” value ([4]; mutagenesis treatments for 28 times) of the same compound?
A: 360 µg/mL

Q: What about the “Concentration of Ofloxacin” value ([4]; mutagenesis treatments for 29 times) of the same compound?
A: 370 µg/mL

Q: What about the “Concentration of Ofloxacin” value ([4]; mutagenesis treatments for 30 times) of the same compound?
A: 380 µg/mL

Q: What about the “Concentration of Ofloxacin” value ([4]; mutagenesis treatments for 31 times) of the same compound?
A: 400 µg/mL

Q: And the “Concentration of Ofloxacin” value ([4]; mutagenesis treatments for 32 times)?
A: 425 µg/mL

Q: What about the “Concentration of Ofloxacin” value ([4]; mutagenesis treatments for 33 times) of the same compound?
A: 450 µg/mL

Q: And the “Concentration of Ofloxacin” value ([4]; mutagenesis treatments for 34 times)?
A: 475 µg/mL

Q: What about the “Concentration of Ofloxacin” value ([4]; mutagenesis treatments for 35 times) of the same compound?
A: 500 µg/mL
